These results are taken from ChEMBL document CHEMBL2429864, “Synthesis and antimicrobial evaluation of 1,3,4-oxadiazole-based chalcone derivatives” (2013).

By MIC is commonly meant the smallest concentration in the dilution series that meets the test's criterion for growth inhibition. A lower MIC goes with inhibition by little substance.

In brackets after ≈: the same amount, converted by molar mass.

The subject of one test is Aspergillus niger. As to the kind of experiment: Antifungal activity against Aspergillus niger ATCC 1015. Type of test: functional.
Consider `CN(C)c1ccc(/C=C\C(=O)c2ccc(NC(=O)CSc3nnc(-c4cccc([N+](=O)[O-])c4)o3)cc2)cc1`, for which the lowest concentration to inhibit growth (MIC) was 125 µg/mL (≈ 236 µM).
Compound `O=C(CSc1nnc(-c2cccc([N+](=O)[O-])c2)o1)Nc1ccc(C(=O)/C=C\c2ccccc2O)cc1` yielded an MIC of 125 µg/mL (≈ 249 µM).
In the case of `COc1ccc(/C=C\C(=O)c2ccc(NC(=O)CSc3nnc(-c4cccc([N+](=O)[O-])c4)o3)cc2)cc1`, the minimal inhibitory concentration (MIC) was 125 µg/mL (≈ 242 µM).
The same measure, in the same setting: next, `COc1ccc(OC)c(/C=C\C(=O)c2ccc(NC(=O)CSc3nnc(-c4cccc([N+](=O)[O-])c4)o3)cc2)c1`: 125 µg/mL (≈ 229 µM); `O=C(CSc1nnc(-c2cccc([N+](=O)[O-])c2)o1)Nc1ccc(C(=O)/C=C\c2c(O)ccc3ccccc23)cc1`: 62.5 µg/mL (≈ 113 µM).
`O=C(CSc1nnc(-c2cccc([N+](=O)[O-])c2)o1)Nc1ccc(C(=O)/C=C\c2ccc(Cl)cc2)cc1` returned a minimal inhibitory concentration (MIC) of 62.5 µg/mL (≈ 120 µM).
The same measure, in the same setting: to `O=C(CSc1nnc(-c2cccc([N+](=O)[O-])c2)o1)Nc1ccc(C(=O)/C=C\c2ccc(O)cc2)cc1` belongs 62.5 µg/mL (≈ 124 µM); to `COc1cc(/C=C\C(=O)c2ccc(NC(=O)CSc3nnc(-c4cccc([N+](=O)[O-])c4)o3)cc2)ccc1O`, 250 µg/mL (≈ 469 µM).

The test system of a further test is Staphylococcus aureus. As to the kind of experiment: Antibacterial activity against Staphylococcus aureus ATCC 25923 by micro dilution/broth titre method. The format is functional.
In turn, `CN(C)c1ccc(/C=C\C(=O)c2ccc(NC(=O)CSc3nnc(-c4cccc([N+](=O)[O-])c4)o3)cc2)cc1` gave an MIC of 31.2 µg/mL (≈ 59 µM).
Still for that read-out and setting: to `O=C(CSc1nnc(-c2cccc([N+](=O)[O-])c2)o1)Nc1ccc(C(=O)/C=C\c2ccccc2O)cc1` belongs 62.5 µg/mL (≈ 124 µM); to `COc1ccc(/C=C\C(=O)c2ccc(NC(=O)CSc3nnc(-c4cccc([N+](=O)[O-])c4)o3)cc2)cc1`, 62.5 µg/mL (≈ 121 µM); to `COc1ccc(OC)c(/C=C\C(=O)c2ccc(NC(=O)CSc3nnc(-c4cccc([N+](=O)[O-])c4)o3)cc2)c1`, 62.5 µg/mL (≈ 114 µM).
Consider `O=C(CSc1nnc(-c2cccc([N+](=O)[O-])c2)o1)Nc1ccc(C(=O)/C=C\c2c(O)ccc3ccccc23)cc1`, for which the MIC stood at 62.5 µg/mL (≈ 113 µM).
The same measure, in the same setting: to `O=C(CSc1nnc(-c2cccc([N+](=O)[O-])c2)o1)Nc1ccc(C(=O)/C=C\c2ccc(Cl)cc2)cc1` belongs 62.5 µg/mL (≈ 120 µM).
Same read-out and setting: next, `O=C(CSc1nnc(-c2cccc([N+](=O)[O-])c2)o1)Nc1ccc(C(=O)/C=C\c2ccc(O)cc2)cc1`: 125 µg/mL (≈ 249 µM); `COc1cc(/C=C\C(=O)c2ccc(NC(=O)CSc3nnc(-c4cccc([N+](=O)[O-])c4)o3)cc2)ccc1O`: 62.5 µg/mL (≈ 117 µM).

A further test concerns Escherichia coli. As to the kind of experiment: Antibacterial activity against Escherichia coli ATCC 25922 by micro dilution/broth titre method. Type of test: functional.
For `CN(C)c1ccc(/C=C\C(=O)c2ccc(NC(=O)CSc3nnc(-c4cccc([N+](=O)[O-])c4)o3)cc2)cc1`, the MIC is 31.2 µg/mL (≈ 59 µM).
For the compound `O=C(CSc1nnc(-c2cccc([N+](=O)[O-])c2)o1)Nc1ccc(C(=O)/C=C\c2ccccc2O)cc1`, the minimal inhibitory concentration (MIC) came out at 62.5 µg/mL (≈ 124 µM).
Same read-out and setting: to `COc1ccc(/C=C\C(=O)c2ccc(NC(=O)CSc3nnc(-c4cccc([N+](=O)[O-])c4)o3)cc2)cc1` belongs 62.5 µg/mL (≈ 121 µM); to `COc1ccc(OC)c(/C=C\C(=O)c2ccc(NC(=O)CSc3nnc(-c4cccc([N+](=O)[O-])c4)o3)cc2)c1`, 62.5 µg/mL (≈ 114 µM).
Still for that read-out and setting: next, `O=C(CSc1nnc(-c2cccc([N+](=O)[O-])c2)o1)Nc1ccc(C(=O)/C=C\c2c(O)ccc3ccccc23)cc1`: 62.5 µg/mL (≈ 113 µM); `O=C(CSc1nnc(-c2cccc([N+](=O)[O-])c2)o1)Nc1ccc(C(=O)/C=C\c2ccc(Cl)cc2)cc1`: 62.5 µg/mL (≈ 120 µM).
On the same count and under the same terms, to `O=C(CSc1nnc(-c2cccc([N+](=O)[O-])c2)o1)Nc1ccc(C(=O)/C=C\c2ccc(O)cc2)cc1` belongs 31.2 µg/mL (≈ 62.2 µM).
For `COc1cc(/C=C\C(=O)c2ccc(NC(=O)CSc3nnc(-c4cccc([N+](=O)[O-])c4)o3)cc2)ccc1O`, the MIC came out at 31.2 µg/mL (≈ 58.7 µM).

The next test has as its system Pseudomonas aeruginosa. Briefly: Antibacterial activity against Pseudomonas aeruginosa ATCC 27853 by micro dilution/broth titre method. Type of test: functional.
`CN(C)c1ccc(/C=C\C(=O)c2ccc(NC(=O)CSc3nnc(-c4cccc([N+](=O)[O-])c4)o3)cc2)cc1`: the MIC is 62.5 µg/mL (≈ 118 µM).
Same read-out and setting: to `O=C(CSc1nnc(-c2cccc([N+](=O)[O-])c2)o1)Nc1ccc(C(=O)/C=C\c2ccccc2O)cc1` belongs 62.5 µg/mL (≈ 124 µM).
Still for that read-out and setting: to `COc1ccc(/C=C\C(=O)c2ccc(NC(=O)CSc3nnc(-c4cccc([N+](=O)[O-])c4)o3)cc2)cc1` belongs 62.5 µg/mL (≈ 121 µM); to `COc1ccc(OC)c(/C=C\C(=O)c2ccc(NC(=O)CSc3nnc(-c4cccc([N+](=O)[O-])c4)o3)cc2)c1`, 62.5 µg/mL (≈ 114 µM).
Same read-out and setting: to `O=C(CSc1nnc(-c2cccc([N+](=O)[O-])c2)o1)Nc1ccc(C(=O)/C=C\c2c(O)ccc3ccccc23)cc1` belongs 62.5 µg/mL (≈ 113 µM); to `O=C(CSc1nnc(-c2cccc([N+](=O)[O-])c2)o1)Nc1ccc(C(=O)/C=C\c2ccc(Cl)cc2)cc1`, 31.2 µg/mL (≈ 60 µM); to `O=C(CSc1nnc(-c2cccc([N+](=O)[O-])c2)o1)Nc1ccc(C(=O)/C=C\c2ccc(O)cc2)cc1`, 31.2 µg/mL (≈ 62.2 µM).
`COc1cc(/C=C\C(=O)c2ccc(NC(=O)CSc3nnc(-c4cccc([N+](=O)[O-])c4)o3)cc2)ccc1O` showed a minimal inhibitory concentration (MIC) of 62.5 µg/mL (≈ 117 µM).

A further test relates to Enterococcus faecalis. As to the kind of experiment: Antibacterial activity against Enterococcus faecalis ATCC 29212 by micro dilution/broth titre method. The format is functional.
Regarding `CN(C)c1ccc(/C=C\C(=O)c2ccc(NC(=O)CSc3nnc(-c4cccc([N+](=O)[O-])c4)o3)cc2)cc1`, inhibition of growth (MIC) required 125 µg/mL (≈ 236 µM).
Still for that read-out and setting: to `O=C(CSc1nnc(-c2cccc([N+](=O)[O-])c2)o1)Nc1ccc(C(=O)/C=C\c2ccccc2O)cc1` belongs 125 µg/mL (≈ 249 µM); to `COc1ccc(/C=C\C(=O)c2ccc(NC(=O)CSc3nnc(-c4cccc([N+](=O)[O-])c4)o3)cc2)cc1`, 125 µg/mL (≈ 242 µM); to `COc1ccc(OC)c(/C=C\C(=O)c2ccc(NC(=O)CSc3nnc(-c4cccc([N+](=O)[O-])c4)o3)cc2)c1`, 125 µg/mL (≈ 229 µM).
The compound `O=C(CSc1nnc(-c2cccc([N+](=O)[O-])c2)o1)Nc1ccc(C(=O)/C=C\c2c(O)ccc3ccccc23)cc1` gave an MIC of 62.5 µg/mL (≈ 113 µM).
`O=C(CSc1nnc(-c2cccc([N+](=O)[O-])c2)o1)Nc1ccc(C(=O)/C=C\c2ccc(Cl)cc2)cc1` came in with a minimum inhibitory concentration (MIC) of 62.5 µg/mL (≈ 120 µM).
Turning to `O=C(CSc1nnc(-c2cccc([N+](=O)[O-])c2)o1)Nc1ccc(C(=O)/C=C\c2ccc(O)cc2)cc1`, the MIC was determined as 125 µg/mL (≈ 249 µM).
On the same count and under the same terms, to `COc1cc(/C=C\C(=O)c2ccc(NC(=O)CSc3nnc(-c4cccc([N+](=O)[O-])c4)o3)cc2)ccc1O` belongs 62.5 µg/mL (≈ 117 µM).

For another test, the system named is Candida albicans. Briefly: Antifungal activity against Candida albicans ATCC 10231. Type of test: functional.
The compound `CN(C)c1ccc(/C=C\C(=O)c2ccc(NC(=O)CSc3nnc(-c4cccc([N+](=O)[O-])c4)o3)cc2)cc1` returned an MIC of 62.5 µg/mL (≈ 118 µM).
Still for that read-out and setting: to `O=C(CSc1nnc(-c2cccc([N+](=O)[O-])c2)o1)Nc1ccc(C(=O)/C=C\c2ccccc2O)cc1` belongs 125 µg/mL (≈ 249 µM).
With `COc1ccc(/C=C\C(=O)c2ccc(NC(=O)CSc3nnc(-c4cccc([N+](=O)[O-])c4)o3)cc2)cc1`, the minimal inhibitory concentration (MIC) is 125 µg/mL (≈ 242 µM).
With `COc1ccc(OC)c(/C=C\C(=O)c2ccc(NC(=O)CSc3nnc(-c4cccc([N+](=O)[O-])c4)o3)cc2)c1`, inhibition of growth (MIC) required 125 µg/mL (≈ 229 µM).
For the compound `O=C(CSc1nnc(-c2cccc([N+](=O)[O-])c2)o1)Nc1ccc(C(=O)/C=C\c2c(O)ccc3ccccc23)cc1`, the MIC came out at 62.5 µg/mL (≈ 113 µM).
The same measure, in the same setting: to `O=C(CSc1nnc(-c2cccc([N+](=O)[O-])c2)o1)Nc1ccc(C(=O)/C=C\c2ccc(Cl)cc2)cc1` belongs 62.5 µg/mL (≈ 120 µM).
Take `O=C(CSc1nnc(-c2cccc([N+](=O)[O-])c2)o1)Nc1ccc(C(=O)/C=C\c2ccc(O)cc2)cc1`: the minimum inhibitory concentration (MIC) was 62.5 µg/mL (≈ 124 µM).
Still for that read-out and setting: to `COc1cc(/C=C\C(=O)c2ccc(NC(=O)CSc3nnc(-c4cccc([N+](=O)[O-])c4)o3)cc2)ccc1O` belongs 250 µg/mL (≈ 469 µM).
